pIC50: −log10 of the molar value. Counter-ions that a name gives are not always drawn.
test system: not given; assay: not given; settings: not given

melting point | Compound
181.7 to 183.4 °C | Nc1ccc(C#Cc2ccc(N3CCN4CCC3CC4)nn2)cc1
184 to 187 °C | CC(=O)Nc1cccc(C(=O)Nc2ccc(N3CCN4CCC3CC4)cc2)c1
> 240 °C | CC(=O)Nc1ccc(C(=O)Nc2ccc(N3CCN4CCC3CC4)cc2)cc1
255 °C (dec.) | CC(=O)Nc1ccc(C(=O)Nc2ccc(N3CCN4CCC3CC4)nc2)cc1
60 °C | CC(=O)Nc1cccc(C(=O)Nc2ccc(N3CCN4CCC3CC4)nc2)c1
173.5 to 175 °C | Fc1cccc(C#Cc2ccc(N3CCN4CCC3CC4)nn2)c1 (as salt: fumaric acid salt)

Compound | melting point
COc1ccc(C#Cc2ccc(N3CCN4CCC3CC4)nn2)cc1 (as salt: fumaric acid salt) [Compound B4, 4-[6-(4-Methoxy-phenylethynyl)-pyridazin-3-yl]-1,4-diaza-bicyclo[3.2.2]nonane] | 208 to 209 °C
C(#Cc1ccc(N2CCN3CCC2CC3)nn1)c1cccnc1 (as salt: fumaric acid salt) [Compound B5, 4-[6-(3-Pyridinlethynyl)-pyridazin-3-yl]-1,4-diaza-bicyclo[3.2.2]nonane] | 177.8 to 181.2 °C

biological target: T1, α7-subtype of nicotinic receptors (Rattus norvegicus, UniProt Q05941); assay: In vitro inhibition of 3H-α-bungarotoxine binding in rat brain; settings: rat cerebral cortex homogenate; 3H-α-bungarotoxine 2 nM; 2 hours at 37° C.
T1 construct: Cerebral cortices from male Wistar rats (150-250 g) are homogenised; from tissue; host or cells: rat cerebral cortex membrane homogenate (male Wistar rats)
T1 sequence (Q05941 23-502): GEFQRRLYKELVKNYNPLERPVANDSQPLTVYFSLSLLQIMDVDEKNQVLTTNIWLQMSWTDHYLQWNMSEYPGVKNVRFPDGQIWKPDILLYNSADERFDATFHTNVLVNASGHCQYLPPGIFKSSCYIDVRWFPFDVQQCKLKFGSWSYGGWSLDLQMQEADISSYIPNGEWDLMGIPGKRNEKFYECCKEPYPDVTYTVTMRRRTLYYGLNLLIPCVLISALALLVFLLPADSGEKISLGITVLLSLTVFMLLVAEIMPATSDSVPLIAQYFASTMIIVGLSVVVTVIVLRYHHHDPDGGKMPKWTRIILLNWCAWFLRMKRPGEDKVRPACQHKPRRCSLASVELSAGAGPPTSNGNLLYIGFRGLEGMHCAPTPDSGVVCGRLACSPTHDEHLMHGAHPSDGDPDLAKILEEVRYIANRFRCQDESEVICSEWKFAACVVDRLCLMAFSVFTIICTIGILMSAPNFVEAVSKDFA

Compound | pIC50
C(#Cc1ccc(N2CCN3CCC2CC3)nn1)c1ccccc1 [Compound B1, 4-(6-Phenylethynyl-pyridazin-3-yl)-1,4-diaza-bicyclo[3.2.2]nonane] | 7.22
COc1ccc(C#Cc2ccc(N3CCN4CCC3CC4)nn2)cc1 [Compound B4, 4-[6-(4-Methoxy-phenylethynyl)-pyridazin-3-yl]-1,4-diaza-bicyclo[3.2.2]nonane] | 6.74
C(#Cc1ccc(N2CCN3CCC2CC3)nn1)c1cccnc1 [Compound B5, 4-[6-(3-Pyridinlethynyl)-pyridazin-3-yl]-1,4-diaza-bicyclo[3.2.2]nonane] | 6.82
c1ccc(Sc2ccc(N3CCN4CCC3CC4)nn2)cc1 [Compound C1, 4-(6-Phenylsulfanyl-pyridazin-3-yl)-1,4-diaza-bicyclo[3.2.2]nonane] | 6.22
